Source: patent US20240016805A1, “THERAPEUTIC METHODS AND COMPOSITIONS FOR TREATING PANCREATIC CANCER USING DEVIMISTAT” (Cornerstone Pharmaceuticals, Inc., priority 2020, published 2024)

Columns and labels:
[1] = system: advanced pancreatic cancer; details: gemcitabine vs. fluorouracil (Burris 1997); cited from earlier work
metastatic PDA = details: patients with metastatic PDA (Von Hoff 2013); cited from earlier work
[2] = system: metastatic pancreatic cancer; details: metastatic pancreatic cancer (Conroy 2011); cited from earlier work
[3] = Animal studies of IV administration of devimistat (acute toxicity, local inflammation); assay type: in vivo
Method: Devimistat must be administered IV, via an IV catheter that is free flowing and free of air in the dead space of the IV catheter, to minimize vascular irritation, inflammation and acute toxicity of devimistat (Study NCL-049). […] To avoid local reactions at and around the site of administration, devimistat must be administered via a central venous catheter.
Devimistat must not be administered as a bolus, but by infusion, at a rate of ˜4 mL/min, via a central venous catheter with D5W running at a rate of about 125-150 mL/hr. This is to minimize potential acute toxicity of devimistat, according to animal studies.

[4] = Compatibility of devimistat with IV infusion sets, IV bags and syringes; assay type: physicochemical
Method: Therefore, DEHP-containing IV infusion sets, IV bags or syringes should not be used in mixing or administration of devimistat.
A compatibility study has been conducted showing that devimistat is compatible with 4 commonly used IV infusion sets. Therefore, these 4 types of IV infusion sets, and IV infusion sets that are made with the same materials, can be used to administer devimistat.
Compatibility studies have shown that devimistat drug product (50 mg/mL), and drug product diluted with D5W to various concentrations (1.6-25 mg/mL) are compatible with various types of syringes, as listed below. Therefore, any of these types of syringes, and syringes that are made with the same materials, can be used to administer devimistat. Also, glass syringes can also be used, since glass (such as glass containers) is compatible with devimistat drug product. • Norm-Ject, polyethylene barrel, polyethylene plunger, latex free (Henke Sass Wolf GMBH) syringes • Becton Dickinson syringes • Terumo syringes • Monoject syringes • Glass syringes

[5] = Adverse events and potential risks attributed to the study drugs; assay type: in vivo; details: expected adverse event
Description: Probably related: Creatinine (expected Adverse Event).
Attribution is the relationship between an adverse event or serious adverse event and the study drug. Attribution will be assigned as follows: • Definite—The AE is clearly related to the study drug. • Probable—The AE is likely related to the study drug. • Possible—The AE may be related to the study drug. • Unlikely—The AE is doubtfully related to the study drug. • Unrelated—The AE is clearly NOT related to the study drug.

[6] = system: metastatic pancreatic cancer; details: cited from earlier work
[7] = 18 patients who received the MTD, with mFOLFIRINOX

Structure (SMILES): O=c1[nH]cc(F)c(=O)[nH]1 [fluorouracil, 5-fluoro-1H-pyrimidine-2,4-dione]
- overall survival [1]: 4.4 months

Structure (SMILES): Nc1ccn([C@@H]2O[C@H](CO)[C@@H](O)C2(F)F)c(=O)n1 [gemcitabine]
- overall survival [1]: 5.6 months
- overall survival (metastatic PDA): 6.7 months
- progression free survival (PFS) (metastatic PDA): 3.7 months
- PFS [2]: 3.3 months
- overall survival [2]: 6.8 months
- partial response rate [2]: 9%

Structure (SMILES): O=C(O)CCCCC(CCSCc1ccccc1)SCc1ccccc1 (stereo not drawn) [devimistat, 6,8-bis(benzylsulfanyl)octanoic acid]
- effect of accidental co-administration of extra air in the dead space of IV catheters ([3]; animal studies, IV administration): potential to induce acute toxicity
- effect of accidental leakage into the perivascular space during IV administration ([3]; in vivo, iv): can induce significant local inflammation
- compatibility with IV infusion sets ([4]; 4 commonly used IV infusion sets (PVC, latex, polyethylene)): compatible
- leaching of DEHP ([4]; DEHP-containing IV infusion sets and IV bags): can cause leaching of DEHP
- adverse events probably related [5]: Creatinine
- Grade 1-2 toxicity observed [6, 7]: sensory neuropathy
- common grade 3/4 toxicities [6, 7]: hypokalemia, diarrhea, abdominal pain, hyperglycemia, peripheral neuropathy, neutropenia, lymphopenia, anemia, and thrombocytopenia
- specific risks attributed beyond the toxicities associated with mFOLFIRINOX ([6]; pilot Phase 1 study): no specific risks that have been definitively observed and attributed to devimistat
